Source: patent publication US11261211B2, “19-NOR neuroactive steroids and methods of use thereof” (Sage Therapeutics, Inc., priority 2013, dated 2022)

Biological target: α1β2γ2 GABAA receptor (Homo sapiens (Human), UniProt P14867+P47870)
Assay: Patch clamp electrophysiology of recombinant α1β2γ2 GABAA receptors in LTK cells
Type: cell-based
Conditions: LTK, 10 μM compound, Qpatch, Ltk cells, GABA EC20 2 μM; read-out: α1β2γ2 GABA Qpatch in Ltk (Efficacy at 10 μm)
Method: Cellular electrophysiology is used to measure the pharmacological properties of our GABAA receptor modulators in heterologous cell systems. Each compound is tested for its ability to affect GABA mediated currents at a submaximal agonist dose (GABA EC20=2 μM). LTK cells are stably transfected with the α1β2γ2 subunits of the GABA receptor and CHO cells are transiently transfected with the α4β3δ subunits via the Lipofecatamine method. Cells were passaged at a confluence of about 50-80% and then seeded onto 35 mm sterile culture dishes containing 2 ml culture complete medium without antibiotics or antimycotics. Confluent clusters of cells are electrically coupled (Pritchett et al., 1988). Because responses in distant cells are not adequately voltage clamped and because of uncertainties about the extent of coupling (Verdoorn et al., 1990), cells were cultivated at a density that enables the recording of single cells (without visible connections to other cells).
Whole cell currents were measured with HEKA EPC-10 amplifiers using PatchMaster software or by using the high throughput QPatch platform (Sophion). Bath solution for all experiments contained (in mM): NaCl 137 mM, KCl 4 mM, CaCl2 1.8 mM, MgCl2 1 mM, HEPES 10 mM, D-Glucose 10 mM, pH (NaOH) 7.4. In some cases 0.005% cremophor was also added. Intracellular (pipette) solution contained: KCl 130 mM, MgCl2 1 mM, Mg-ATP 5 mM, HEPES 10 mM, EGTA 5 mM, pH 7.2. During experiments, cells and solutions were maintained at room temperature (19° C.-30° C.). For manual patch clamp recordings, cell culture dishes were placed on the dish holder of the microscope and continuously perfused (1 ml/min) with bath solution. After formation of a Gigaohm seal between the patch electrodes and the cell (pipette resistance range: 2.5 MΩ-6.0 MΩ; seal resistance range: >1 GΩ) the cell membrane across the pipette tip was ruptured to assure electrical access to the cell interior (whole-cell patch-configuration). For experiments using the QPatch system, cells were transferred as suspension to the QPatch system in the bath solution and automated whole cell recordings were performed.
Cells were voltage clamped at a holding potential of −80 mV. For the analysis of test articles, GABA receptors were stimulated by 2 μM GABA after sequential pre-incubation of increasing concentrations of the test article. Pre-incubation duration was 30 s and the duration of the GABA stimulus was 2 s. Test articles were dissolved in DMSO to form stock solutions (10 mM). Test articles were diluted to 0.01, 0.1, 1, and 10 μM in bath solution. All concentrations of test articles were tested on each cell. The relative percentage potentiation was defined as the peak amplitude in response to GABA EC20 in the presence of the test article divided by the peak amplitude in response to GABA EC20 alone, multiplied by 100.

| SMILES | activity at 10 µM [%] |
| --- | --- |
| CC[C@@]1(O)CC[C@H]2[C@@H](CC[C@@H]3[C@@H]2CC[C@]2(C)[C@@H](C(=O)Cn4nc5ccccc5n4)CC[C@@H]32)C1 [SB-36] | 100 to 500 |
| CC[C@@]1(O)CC[C@H]2[C@@H](CC[C@@H]3[C@@H]2CC[C@]2(C)[C@@H](C(=O)Cn4nc5ccc(F)cc5n4)CC[C@@H]32)C1 [SB-39] | 10 to 100 |
| COC[C@@]1(O)CC[C@H]2[C@@H](CC[C@@H]3[C@@H]2CC[C@]2(C)[C@@H](C(=O)Cn4nc5ccc(F)cc5n4)CC[C@@H]32)C1 [SB-41] | 10 to 100 |
| COC[C@@]1(O)CC[C@H]2[C@@H](CC[C@@H]3[C@@H]2CC[C@]2(C)[C@@H](C(=O)Cn4nnc5cnccc54)CC[C@@H]32)C1 [SB-43] | 100 to 500 |
| COC[C@@]1(O)CC[C@H]2[C@@H](CC[C@@H]3[C@@H]2CC[C@]2(C)[C@@H](C(=O)Cn4nc5ccncc5n4)CC[C@@H]32)C1 [SB-44] | > 500 |
| COC[C@@]1(O)CC[C@H]2[C@@H](CC[C@@H]3[C@@H]2CC[C@]2(C)[C@@H](C(=O)Cn4ncc5ccncc54)CC[C@@H]32)C1 [SB-46] | 100 to 500 |
| COC[C@@]1(O)CC[C@H]2[C@@H](CC[C@@H]3[C@@H]2CC[C@]2(C)[C@@H](C(=O)Cn4cc5ncccc5n4)CC[C@@H]32)C1 [SB-47] | > 500 |
| COC[C@@]1(O)CC[C@H]2[C@@H](CC[C@@H]3[C@@H]2CC[C@]2(C)[C@@H](C(=O)Cn4ncc5ncccc54)CC[C@@H]32)C1 [SB-48] | > 500 |
| COC[C@@]1(O)CC[C@H]2[C@@H](CC[C@@H]3[C@@H]2CC[C@]2(C)[C@@H](C(=O)Cn4nnc5ccccc54)CC[C@@H]32)C1 [SB-49] | 100 to 500 |
| CCOC[C@@]1(O)CC[C@H]2[C@@H](CC[C@@H]3[C@@H]2CC[C@]2(C)[C@@H](C(=O)Cn4nnc5ccccc54)CC[C@@H]32)C1 [SB-52] | 100 to 500 |
| CCOC[C@@]1(O)CC[C@H]2[C@@H](CC[C@@H]3[C@@H]2CC[C@]2(C)[C@@H](C(=O)Cn4nc5ccccc5n4)CC[C@@H]32)C1 [SB-53] | 10 to 100 |
| CCOC[C@@]1(O)CC[C@H]2[C@@H](CC[C@@H]3[C@@H]2CC[C@]2(C)[C@@H](C(=O)Cn4ncc5ncccc54)CC[C@@H]32)C1 [SB-54] | 100 to 500 |
| CCOC[C@@]1(O)CC[C@H]2[C@@H](CC[C@@H]3[C@@H]2CC[C@]2(C)[C@@H](C(=O)Cn4cc5ncccc5n4)CC[C@@H]32)C1 [SB-55] | 10 to 100 |
| CCOC[C@@]1(O)CC[C@H]2[C@@H](CC[C@@H]3[C@@H]2CC[C@]2(C)[C@@H](C(=O)Cn4ncc5ccncc54)CC[C@@H]32)C1 [SB-56] | 10 to 100 |
| CCOC[C@@]1(O)CC[C@H]2[C@@H](CC[C@@H]3[C@@H]2CC[C@]2(C)[C@@H](C(=O)Cn4cc5ccncc5n4)CC[C@@H]32)C1 [SB-57] | 100 to 500 |
| CCOC[C@@]1(O)CC[C@H]2[C@@H](CC[C@@H]3[C@@H]2CC[C@]2(C)[C@@H](C(=O)Cn4nc5ccncc5n4)CC[C@@H]32)C1 [SB-59] | 100 to 500 |
| CCOC[C@@]1(O)CC[C@H]2[C@@H](CC[C@@H]3[C@@H]2CC[C@]2(C)[C@@H](C(=O)Cn4nc5ccc(F)cc5n4)CC[C@@H]32)C1 [SB-60] | 10 to 100 |
| COc1ccc2nn(CC(=O)[C@H]3CC[C@H]4[C@@H]5CC[C@H]6C[C@@](O)(CF)CC[C@@H]6[C@H]5CC[C@]34C)nc2c1 [SG-21] | 10 to 100 |
| COc1ccc2nnn(CC(=O)[C@H]3CC[C@H]4[C@@H]5CC[C@H]6C[C@@](O)(CF)CC[C@@H]6[C@H]5CC[C@]34C)c2c1 [SG-22] | 100 to 500 |
| COc1ccc2c(c1)nnn2CC(=O)[C@H]1CC[C@H]2[C@@H]3CC[C@H]4C[C@@](O)(CF)CC[C@@H]4[C@H]3CC[C@]12C [SG-23] | 10 to 100 |
| C[C@]12CC[C@H]3[C@@H](CC[C@H]4C[C@@](O)(CF)CC[C@@H]43)[C@@H]1CC[C@@H]2C(=O)Cn1nc2ccc(F)cc2n1 [SG-24] | 100 to 500 |
